How the values were obtained:
[1] = test system: Turicibacter sanguinis MOL361; assay: T. sanguinis growth curve and viability; format: cell-based
Description: Scale bars: 10 μm. […] Scale bar denotes 100 um.
Cell density of T. sanguinis at 6, 12, 18, 30, 36, 45 and 48 hours of growth in the presence of 200 uM 5-HT, Flx or both 5-HT and Flx. Treatments were added at the start of culture (e.g. t=0 h).
(§1) Turicibacter sanguinis MOL361 (DSM-14220, DSMZ) was grown in Schaedler's Broth (BD Biosciences) in an anaerobic chamber of 10% carbon dioxide, 5% hydrogen, and balanced nitrogen. Bacteroides thetaiotaomicron (ATCC 29148) was grown in Brain Heart Infusion media (BD Biosciences) supplemented with 5 ug/ml hemin (Frontier Scientific) and 0.5 ug/ml vitamin K1 (Sigma Aldrich) under the same anaerobic conditions. Mouse- and human-derived spore-forming bacterial consortia were isolated by chloroform treatment and propagated in mice.

CUW_0748 [2] = assay: APP+ uptake in B. thetaiotaomicron expressing CUW_0748; format: cell-based
Description: (§2) T. sanguinis and B. theta were cultured anaerobically as described above and subcultured for 15-17 h to reach the stationaryphase. Bacterial APP+ transport activity was measured according to the manufacturer's instructions using the Neurotransmitter Transporter Uptake Assay Kit (Molecular Devices). […] Then cells were treated with APP+ for 4 hours at 37° C. Intracellular fluorescence signal was measured at 520 nm using a multimodal plate reader (Biotek Synergy H1). Bacterial suspensions were mounted on slides and imaged using an epifluorescence microscope (EVOS). Images of B. theta were brightened by 90% to resolve fluorescence signal.

T. sanguinis [3] = assay: APP+ uptake assay in T. sanguinis; format: cell-based, Turicibacter sanguinis; conditions: 200 uM pre-treatment for 30 min
Description: as §2

T. sanguinis MOL361 [4] = assay: Turicibacter colonization of antibiotic-treated mice (FISH, 16S rDNA); format: in vivo
T. sanguinis [5] = assay: Bacterial transcriptomic analysis of T. sanguinis; format: cell-based, Turicibacter sanguinis
Description: T. sanguinis was cultured anaerobically as described above and subcultured to mid-log-phase. […] Bacteria were washed with PBS and lysed in TE buffer containing 1.2% Triton X-100 and 15 mg/ml lysozyme. RNA was extracted using the RNAeasy Mini kit with on-column genomic DNA-digest (Qiagen). cDNA synthesis was performed using the qScript cDNA synthesis kit (Quantabio). RNA quality of RIN>8.0 was confirmed using the 4200 Tapestation system (Agilent). rRNA were removed with the Ribo-Zero Bacterial kit (Illumina), RNA was prepared using the TruSeq Stranded RNA kit (Illumina) and 2×75 bp paired end reads were sequenced using the Illumina HiSeq platform by the UCLA Neuroscience Genomics Core. The bacterial RNAseq analysis package Rockhopper was used for quality filtering, mapping against the T. sanguinis PC909 genome and differential expression analysis. […] Heatmaps containing differentially expressed genes with adjusted p<0.05 and coefficient of variation (standard deviation/mean)<3 were generated using the pheatmap package for R. GO term enrichment analysis of differentially expressed genes with adjusted p<0.05 was conducted using DAVID. Functional protein networks were generated with differentially expressed genes with adjusted p<0.05 using STRING. Bacterial FM 4-64 staining and imaging. […] Cells were washed with PBS, fixed in 4% paraformaldehyde, and stained with FM4-64 (5 μg ml−1) and 4′,6-diamidino-2-phenylindole (DAPI; 0.2 μg ml−1) according to the manufacturer's instructions. Cells were wet-mounted on glass slides and cover slips. Images were acquired at 63× using the Zeiss LSM 780 confocal microscope. Images were analysed using Fiji software51 by a researcher blinded to the experimental group. FM 4-64 puncta were counted manually based on circularity and fluorescence intensity. Counts were normalized to cell area, as determined by thresholding of DAPI staining.

CUW_0748 [6] = assay: [3H]5-HT uptake in B. thetaiotaomicron expressing CUW_0748; format: cell-based
Description: The vector was transformed into E. coli with selection using 100 ug/ml ampicillin and conjugated into B. theta using the E. coli helper plasmid RK231 with 50 ug/ml kanamycin selection. E. coli was killed using 200 ug/ml gentamicin and transconjugant strains were selected using 5 ug/ml erythromycin. Successful conjugation and gene expression were confirmed by PCR and qPCR for CUW_0748 in DNA and RNA extracted from B. theta clones. T. sanguinis or B. theta were cultured anaerobically as described above and subcultured for 15-17 h to reach the stationary phase. […] For T. sanguinis, all uptake reactions were performed at room temperature. For B. theta, uptake reactions were performed at either room temperature or 37° C. Uptake reactions were terminated by washing in ice cold Kreb-Ringer's buffer. Washed T. sanguinis was trapped through 0.45 um PVDF filters on MultiScreenHTS plates connected to a vacuum manifold (EMD Millipore). For B. theta, washed cells were either trapped through 0.45-μm PVDF filters or lysed by incubating in TE buffer plus triton and lysozyme. Extracted filters or lysed cells were incubated in 4 ml Filter Count scintillation fluid (Perkin Elmer) for 1 hour at room temp, and radioactivity was measured using a liquid scintillation counter (Beckman LS6500).

[7] = Fecal 5-HT levels after 5-HT in drinking water (ELISA); format: in vivo, mice
Description: (§3) Water was supplemented with 5-HT (Sigma Aldrich) at 1.5 mg/ml provided ad libitum to mice for 2 weeks. The amount of water consumed and mouse weight were measured on days 3, 7, 10 and 14 of treatment. Mice were sacrificed one day after treatment for 5-HT assays and fecal 16S rDNA profiling was conducted as described below.
Blood samples were collected by cardiac puncture and spun through SST vacutainers (Becton Dickinson) for serum separation. […] Serotonin levels were detected by ELISA according to the manufacturer's instructions (Eagle Biosciences). Readings from tissue samples were normalized to total protein content as detected by BCA assay or the 660 nm Protein Assay (Thermo Pierce).
SPF mice were treated with ampicillin, gentamicin, neomycin and vancomycin (AGNV) in their drinking water at 0.5 g/L for 4 days. […] 5-HT drinking water concentration was determined by calculating the same molar concentration as Flx in drinking water. […] Three days after the final gavage, mice were euthanized by CO2 and the small and large intestines were collected for fluorescence in situ hybridization (FISH) as described below and lumenal contents from the small and large intestines were harvested for 16S rDNA sequencing. […] Tissues were collected and analysed 3 d after the final gavage. […]

[8] = test system: gut microbiota (Clostridia); assay: Fecal 16S rDNA microbiota profiling after oral 5-HT supplementation; format: in vivo, mice
Description: as §3
(§4) Bacterial genomic DNA was extracted from mouse fecal samples using the MoBio PowerSoil Kit. The library was generated according to methods adapted from Capraso J. G., et al., PNAS 108 Suppl 1, 4516-4522 (2011). The V4 regions of the 16S rDNA gene were PCR amplified using individually barcoded universal primers and 30 ng of the extracted genomic DNA. The PCR reaction was set up in triplicate, and the PCR product was purified using the Qiaquick PCR purification kit (Qiagen). In total, 250 ng of purified PCR product from each sample was pooled and sequenced by Laragen, Inc. using the Illumina MiSeq platform and 2×250 bp reagent kit for paired-end sequencing. Operational taxonomic units (OTUs) were chosen by open reference OTU picking based on 97% sequence similarity to the Greengenes 13_5 database. Taxonomy assignment and rarefaction were performed using QIIME1.8.0. Metagenomes were inferred from closed reference OTU tables using PICRUSt.

T. sanguinis [9] = assay: [3H]NE uptake assay in T. sanguinis; format: cell-based, Turicibacter sanguinis; conditions: 30 min pre-treatment, 200 uM fluoxetine
Description: T. sanguinis or B. theta were cultured anaerobically as described above and subcultured for 15-17 h to reach the stationary phase. […] Cells were then incubated with 1 μM tritiated 5-HT (plus 0-500 μM unlabelled 5-HT for dose-dependent assays), NE or Trp (PerkinElmer). For T. sanguinis, all uptake reactions were performed at room temperature. For B. theta, uptake reactions were performed at either room temperature or 37° C. Uptake reactions were terminated by washing in ice cold Kreb-Ringer's buffer. Washed T. sanguinis was trapped through 0.45 um PVDF filters on MultiScreenHTS plates connected to a vacuum manifold (EMD Millipore). For B. theta, washed cells were either trapped through 0.45-μm PVDF filters or lysed by incubating in TE buffer plus triton and lysozyme. Extracted filters or lysed cells were incubated in 4 ml Filter Count scintillation fluid (Perkin Elmer) for 1 hour at room temp, and radioactivity was measured using a liquid scintillation counter (Beckman LS6500).

[10] = Lipid clinical chemistry analysis of serum; format: in vivo; conditions: antibiotic-treated mice gavaged with T. sanguinis pretreated with 200 μM 5-HT+Flx
Excerpt: Serum samples were collected from SPF, germfree, Turicibacter-monocolonized or Turicibacter-enriched mice and submitted to Charles River Clinical Pathology for analysis of the lipid species, including total cholesterol, free fatty acids, high-density lipoprotein, low-density lipoprotein and total triglycerides.

T. sanguinis MOL361 [11] = assay: 5-HT levels in culture supernatant of T. sanguinis grown in Schaedler broth; format: cell-based, Turicibacter sanguinis; conditions: 200 uM fluoxetine, 0-36 hours of growth
Description: as §1

fecal microbiota = assay: Fluoxetine treatment of SPF mice, fecal 16S rDNA sequencing; format: in vivo
Description: as §4
Fecal samples were harvested on day 0, 1, 4, 7 or 14 of treatment as indicated in figure legends and processed for 16S rDNA sequencing as described above.

T. sanguinis [12] = assay: [3H]5-HT uptake assay in T. sanguinis; format: cell-based, Turicibacter sanguinis; conditions: 30 min pre-treatment
[13] = SPF mice gavaged with fluoxetine

SMILES: NCCc1c[nH]c2ccc(O)cc12 [5-HT, 5-hydroxytryptamine]
- T. sanguinis survival/viability after short-term (acute) exposure ([1]; 4 h exposure, 200 μM): not affected
- effect on APP+ uptake conferred by CUW_0748 (CUW_0748 [2]): inhibited
- effect on APP+ uptake (import) by T. sanguinis (T. sanguinis [3]): partially decreased
- T. sanguinis levels/colonization in the small intestine (T. sanguinis MOL361 [4]; antibiotic-treated SPF mice, bacterial pre-treatment plus same treatment in drinking water): detectable T. sanguinis colonization
- T. sanguinis competitive colonization, bacterial pre-treatment only (T. sanguinis MOL361 [4]; antibiotic-treated mice, no supplementation in drinking water): promoted its competitive colonization
- effect on T. sanguinis gene expression pathways vs vehicle (T. sanguinis [5]; 200 uM 5-HT, 4 hr): downregulated the expression of genes that clustered into pathways for cell differentiation, morphogenesis and sporulation
- number of bacterial genes with significantly altered expression (T. sanguinis [5]; 4 hr exposure, 200 uM, vs vehicle): 71 genes
- differentially expressed genes (q<0.05) downregulated relative to vehicle (T. sanguinis [5]; T. sanguinis treated with 5-HT): 54 genes
- effect on 1 μM [3H]5-HT uptake conferred by CUW_0748 (CUW_0748 [6]): inhibited
- increase of fecal 5-HT levels relative to vehicle-treated controls ([7]; SPF mice, 1.5 mg/ml 5-HT in the drinking water for 2 weeks): 642 fold
- elevation of fecal 5-HT levels over vehicle ([7]; antibiotic-treated mice, 5-HT 24 μg/ml in drinking water): approximately 6 fold
- combined relative abundance of Clostridiales, Clostridiaceae, Ruminococcus and Ruminococcaceae (mean±S.E.M.) ([8]; 5-HT-supplemented mice, fecal microbiota): 86.2±5.8%
- increase of combined relative abundance of Clostridiales, Clostridiaceae, Ruminococcus and Ruminococcaceae ([8]; SPF mice, 1.5 mg/ml 5-HT in drinking water 2 weeks, vs SPF mice): 8.4 fold
- effect on species of Clostridia in fecal microbiota ([8]; oral 5-HT supplementation, SPF mice): substantially enriched

SMILES: CNCCC(Oc1ccc(C(F)(F)F)cc1)c1ccccc1 (centres unmarked) [fluoxetine]
- effect on bacterial uptake of norepinephrine ([3H]NE) (T. sanguinis [9]): no effect
- serum triglyceride levels compared with mice colonized with vehicle-treated T. sanguinis [10]: increased
- effect on T. sanguinis growth over long-term culture ([1]; 200 uM, Schaedler broth, up to 48 hours): cytostatic effects
- effect on decrease of 5-HT levels in the media over time (T. sanguinis MOL361 [11]): prevented
- effect on APP+ uptake (import) by T. sanguinis (T. sanguinis [3]): partially decreased
- Turicibacter in fecal microbiota (fecal microbiota; SPF mice gavaged with 10 mg/kg fluoxetine): decreased
- Clostridiaceae in fecal microbiota (fecal microbiota; [13]): decreased
- bacterial alpha diversity of fecal microbiota (fecal microbiota; [13]): no significant differences
- change in T. sanguinis gene expression in the absence of 5-HT (T. sanguinis [5]; fluoxetine alone): little change
- effect on T. sanguinis gene expression compared with 5-HT-treated controls (T. sanguinis [5]; fluoxetine with 5-HT, 4 hr): upregulated the expression of genes encoding proteins relevant to efflux transporters, ABC transporters and sporulation

SMILES: NC[C@H](O)c1ccc(O)c(O)c1 [norepinephrine]
- effect on APP+ uptake (import) by T. sanguinis (T. sanguinis [3]): modest, but not statistically significant, effect

SMILES: COc1cc2c(cc1OC)C1CC(=O)C(CC(C)C)CN1CC2 (centres unmarked) [tetrabenazine]
- effect on [3H]5-HT uptake by T. sanguinis (T. sanguinis [12]): not observed
